Experiments:
Assay type in all cases: cell-based, Escherichia coli
E. coli MG1655 = experiment: IPTG induction, micro-array gene expression profiling
Experimental: E. coli MG1655 was cultured with aeration in either the minimal medium, M9 (Miller, J. H., Experiments in Molecular Genetics, Cold Spring Harbor (1972)), supplemented with 0.4% glucose or in the rich medium, LB (Miller, J. H., Experiments in Molecular Genetics, Cold Spring Harbor (1972)), at 37° C. The overnight culture was diluted 250 fold into fresh medium and aerated by shaking at 37° C. Samples of the minimal medium culture were harvested at A600=0.40 (exponential phase) and 1.6 (transition to stationary phase) prior to RNA isolation. An IPTG induction (Miller, J. H., Experiments in Molecular Genetics, Cold Spring Harbor (1972)) was performed to examine the specificity with which it effects gene expression. A culture grown overnight in LB at 37° C. was diluted 250 fold into fresh LB and aerated at 37° C. When the culture achieved an appropriate density (A600=0.40), it was split. To one portion was added IPTG to a final concentration of 1 mM; the untreated sample served as a control. Incubation of both samples was continued with aeration at 37° C. for another 15 min (A600=0.45 for both cultures) before RNA isolation was initiated.
RNA Isolation. An equivalent volume of shaved ice was added to 50 mL samples which were pelleted immediately in a refrigerated centrifuge by spinning at 10,410×g for 2 min. Each resultant pellet was resuspended in a mixture containing 100 μL of Tris HCl (10 mM, pH 8.0) and 350 μL of β-mercaptoethanol supplemented RLT buffer [Qiagen RNeasy Mini Kit, Valencia, Calif.]. The cell suspension was added to a chilled 2 mL screwed-capped microfuge tube containing 100 μL of 0.1 mm zirconia/silica beads (Biospec Product Inc., Bartlesville, Okla.). The cells were broken by agitation at room temperature for 25 sec with a Mini-Beadbeater™ (Biospec Products Inc., Bartlesville, Okla.). Debris was pelleted by centrifugation for 3 min at 16,000×g and 4° C.; the resultant supernatant was mixed with 250 μL of ethanol. This mixture was loaded onto a column from the Qiagen RNeasy Mini Kit. RNA isolation was completed using the protocol supplied with this kit. Incubation for 1 hr. at 37° C. in 40 mM Tris pH 8.0, 10 mM NaCl, 6 mM MgCl2 with RNase free RQ1 DNase (1 unit/μL, Promega, Madison, Wis.) digested any genomic DNA contaminating the RNA preparation. The digestion products were purified by a second passage through the RNeasy protocol (Qiagen, Valencia, Calif.). The product was eluted from the column in 50 μL RNAse-free water prior to determining sample concentration by an A260 reading. RNA preparations were stored frozen at either −20 or −80° C.
Synthesis of fluorescent cDNA from total RNA. Six microgram of RNA template and 12 μg of random hexamer primers (Operon Technologies, Inc., Alameda, Calif.) were diluted with double distilled (dd) water to a volume of 22 μL. Annealing was accomplished by incubation at 70° C. for 10 min followed by 10 min at room temperature. In order were added: 8 μL of 5×SuperScript II reaction buffer (Life Technologies, Inc., Gaithersberg, Md.), 4 μL of 0.1 M DTT, 2 μL of the dNTP mix (2 mM dATP, 2 mM dGTP, 2 mM TTP, 1 mM dCTP), 2 μL of 0.5 mM Cy3- or Cy5-dCTP (Amersham Pharmacia Biotech, Arlington Heights, Ill.), and 2 μL of SuperScript II reverse transcriptase ([…], Life Technologies Inc., Gaithersberg, Md.). DNA synthesis proceeded at 42° C. for 2.5 hr. before the reaction was terminated by heating at 94° C. for 5 min. Alkaline hydrolysis of the RNA templates was achieved by adding 2 μL of 5M NaOH followed by incubation at 37° C. for 10 min. Hydrolysis was terminated by the sequential addition of 3 μL of 5M HCl and 5 μL of 1M Tris-HCl, pH 6.8. The labeled cDNA was purified with a PCR purification kit (Qiagen, Valencia, Calif.), dried in a speed vacuum and stored at −20° C. Labeling efficiency was monitored using either A550, for Cy3 incorporation, or A650, for Cy5 labeling, to A260 ratios.
Hybridization and washing. […]

E. coli DM803 (lexAind) = experiment: MMC exposure, gene expression profile of DM803 (lexAind); settings: MMC for 40 min
Experimental: (§1) Strains E. coli strain, MG1655, was used to determine the gene expression profile of E. coli in response to a MMC challenge. Two isogenic E. coli strains (Mount et al, J. Bacteriol. 112:886-893 (1972)), DM800 (lexA^+), used as control displaying a normal response to DNA damage, and DM803 (lexA^ind), a strain unable to mount the predominant “SOS” response to DNA damage, were compared using comprehensive gene expression profiling.
(§2) MMC experiment MG1655 cells were grown in LB overnight with aeration. The overnight cultures were diluted 100 fold in LB to final volume of 500 mL and grown at 37° C. to exponential phase. 200 mL of culture was treated with MMC to the final concentration of 250 ng/mL. Another 200 mL of culture were mock treated without MMC for comparison. Cells were harvested at 15 min and 40 min for MG1655 strain. With DM800 and DM803 stains, cells, cultured in an identical manner, were harvested after 40 min exposure. RNA was isolated and gene expression profile was analyzed as shown in Examples 1 and 2.

E. coli strain MG1655 = experiment: MMC exposure, gene expression profile of MG1655
Experimental: as §1, §2

E. coli DM800 (lexA+) = experiment: MMC exposure, gene expression profile of DM800 (lexA+); settings: MMC for 40 min
Experimental: as §1, §2

## CC(C)S[C@@H]1O[C@H](CO)[C@H](O)[C@H](O)[C@H]1O [IPTG, isopropylthiogalactoside]
E. coli MG1655; 1 mM IPTG for 15 min
  number of genes whose expression increased by a factor of more than 2: 8 genes
  two-fold or greater repression of arrayed genes: not observed
E. coli MG1655; gene b0956/ycbG (hydrogenase?), 1 mM IPTG, 15 min, LB, 37° C.
  fold IPTG induction of b0956/ycbG: 2.5 fold
E. coli MG1655; gene b1783/yeaG, 1 mM IPTG, 15 min, LB, 37° C.
  fold IPTG induction of b1783/yeaG: 3.6 fold
E. coli MG1655; gene b2324 (peptidase?), 1 mM IPTG, 15 min, LB, 37° C.
  fold IPTG induction of b2324: 5.3 fold
E. coli MG1655; gene lacA (thiogalactoside acyltransferase), 1 mM IPTG, 15 min, LB, 37° C.
  fold IPTG induction of lacA: 36 fold
E. coli MG1655; gene lacY (galactoside permease), 1 mM IPTG, 15 min, LB, 37° C.
  fold IPTG induction of lacY: 14 fold
E. coli MG1655; gene lacZ (galactosidase), 1 mM IPTG, 15 min, LB, 37° C.
  fold IPTG induction of lacZ: 29 fold
E. coli MG1655; gene melA (galactosidase), 1 mM IPTG, 15 min, LB, 37° C.
  fold IPTG induction of melA: 2.9 fold
E. coli MG1655; gene uxaA (altronate hydrolase), 1 mM IPTG, 15 min, LB, 37° C.
  fold IPTG induction of uxaA: 4.0 fold

## CO[C@@]12[C@H](COC(N)=O)C3=C(C(=O)C(C)=C(N)C3=O)N1C[C@@H]1N[C@@H]12 [MMC, mitomycin C]
E. coli DM803 (lexAind)
  induction of SOS responsive genes, including lexA: not induced
  induction of dicB, dicC, sdiA, cheW, motA, cycA, fadL, chaC, codB and btuC: greater than 2 fold
E. coli strain MG1655; 40 min exposure, MMC 250 ng/mL
  number of genes with expression elevated greater than 2 fold relative to the control: 40 genes
E. coli strain MG1655; 40 min exposure, recN, dinI, sulA, lexA, recA, uvrA, dinD, priC, umuC, mioC, uvrB, ruvA, xseA
  number of stress response genes induced more than 2 fold: 13 genes
E. coli strain MG1655; cells harvested at 15 min post exposure, MMC 250 ng/mL
  SOS response: very little
E. coli DM800 (lexA+)
  induction of SOS responsive genes: greater than 2 fold
  induction of dicB, dicC, sdiA, cheW, motA, cycA, fadL, chaC, codB and btuC: not induced

From US6607885B1, “Method for high-density microarray medicated gene expression profiling” (priority 1999, dated 2003)
